{
  "source": "paper PMC3810934",
  "about": "(Emerging Infectious Diseases, 2013)",
  "key": {"[1]": {"molecular_target": "A/Anhui/1/2013 (E2/S1) virus isolate neuraminidase (Influenza A virus (A/Anhui/1/2013(H7N9)), UniProt A0A024E3Q2)", "assay_type": "biochemical", "conditions": "pH 6.5"}, "[2]": {"molecular_target": "A/Anhui/1/2013 (E2/S1) virus isolate neuraminidase (Influenza A virus (A/Anhui/1/2013(H7N9)), UniProt A0A024E3Q2)", "assay_type": "biochemical", "conditions": "pH 5.1"}, "[3]": {"molecular_target": "T1, Oseltamivir-sensitive A/Washington/01/2007 neuraminidase (Influenza A virus (H3N2), UniProt A7UPN3)", "assay": "biochemical"}, "[4]": {"molecular_target": "T1, Oseltamivir-sensitive A/Washington/01/2007 neuraminidase", "assay_type": "biochemical", "conditions": "pH 6.5"}, "[5]": {"molecular_target": "T2, Oseltamivir-sensitive A/California/12/2012 neuraminidase (Influenza A virus (H1N1pdm09), UniProt R4SI91)", "assay_type": "biochemical", "conditions": "pH 5.1"}, "[6]": {"molecular_target": "T2, Oseltamivir-sensitive A/California/12/2012 neuraminidase", "assay_type": "biochemical", "conditions": "pH 6.5"}, "[7]": {"test_system": "A/Shanghai/1/2013 virus", "conditions": "cited from earlier work"}},
  "note": "Like-named read-outs stand apart in the source and are kept apart here.",
  "data": [
    {"smiles": "CO[C@@H]([C@@H]1OC(C(=O)O)=C[C@H](NC(=N)N)[C@H]1NC(C)=O)[C@H](O)CO", "note": "[Laninamivir, laninamivir]", "values": [
      {"measurement": "IC50", "setting": "[1]", "result": 0.46, "unit": "nM"},
      {"measurement": "IC50", "setting": "[2]", "result": 1.29, "unit": "nM"}
    ]},
    {"smiles": "CCC(CC)[C@H](NC(C)=O)[C@@H]1[C@H](O)[C@@H](C(=O)O)C[C@H]1N=C(N)N", "note": "[Peramivir, peramivir]", "values": [
      {"measurement": "IC50", "setting": "[1]; read-out: IC50", "result": 0.06, "unit": "nM"},
      {"measurement": "IC50", "setting": "[3]; pH 5.1, read-out: IC50", "result": 0.1, "unit": "nM"},
      {"measurement": "IC50", "setting": "[2]; read-out: IC50", "result": 0.12, "unit": "nM"},
      {"measurement": "IC50", "setting": "[4]", "result": 0.08, "unit": "nM"},
      {"measurement": "IC50", "setting": "[5]", "result": 0.07, "unit": "nM"},
      {"measurement": "IC50", "setting": "[6]", "result": 0.06, "unit": "nM"}
    ]},
    {"smiles": "CC(=O)N[C@H]1[C@H]([C@H](O)[C@H](O)CO)OC(C(=O)O)=C[C@@H]1N=C(N)N", "note": "[Zanamivir, zanamivir]", "values": [
      {"measurement": "IC50", "setting": "[1]", "result": 0.33, "unit": "nM"},
      {"measurement": "IC50", "setting": "[3]", "result": 0.45, "unit": "nM"},
      {"measurement": "IC50", "setting": "[2]", "result": 1, "unit": "nM"},
      {"measurement": "Susceptibility on the basis of NI assay data", "setting": "[7]", "result": "susceptible"}
    ]}
  ]
}
